# Patent US6696475B2, “Substituted phenyl derivatives, their preparation and use” (NeuroSearch A/S, priority 1997, dated 2004)
# Key:
# [1] = test system: erythrocyte chloride channels; experiment: Cl- conductance (GCl) from conductive netfluxes of Cl- and membrane potentials in suspensions of normal erythrocytes; format: cell-based, Human; conditions: suspension of normal erythrocytes; for Kd: read-out: KD-value for block of GCl
# Description: (§1) The compounds of the present invention are potent blockers of chloride channels in normal as well as sickle cell erythrocytes.
# (§2) All dose-response experiments were therefore performed by concomitant measurements of conductive neffluxes of Cl^− (JCl) and membrane potentials (Vm) in suspensions of erythrocytes (Bennekou, P. and Christophersen, P. (1986), Flux ratio of Valinomycin—Mediated K^+ Fluxes across the Human Red Cell Membrane in the presence of the Protronophore CCCP. J. Membrane Biol. 93, 221-227. ). The membrane Cl^− conductances (GCl) were calculated by the following equation (Hodgkin, A. L. and Huxley, A. F. (1952) The components of membrane conductance in the giant axon of Loligo. J. Physiol. Lond. 116, 449-472): [formula]
# (§3) where F is the Faraday constant, ECl is the Nernst potential for the Cl-ion.
# sickle erythrocytes = experiment: Deoxygenation induced permeability increase of sickle cells, extracellular K+-concentration vs time; format: cell-based; conditions: 10 μM
# Description: (§4) Deoxygenation induced permeability increases of sickle cells were estimated by measuring the extracellular K^+-concentration vs time. […] The K^+ flux from oxygenated sickle erythrocytes was 2-3 times higher than from normal erythrocytes and these fluxes was accelerated 4-8 times upon deoxygenation.
# mice = conditions: mouse, in vivo
# Description: (§5) 3-Trifluoromethylphenyl-2-carboxyphenyl urea is non-toxic to mice and rats at concentrations up to 250 mg/kg i.p. and i.v.
# rats = conditions: rat, in vivo
# Description: as §5
# Normal erythrocytes = experiment: K+-flux from normal erythrocytes, extracellular K+-concentration vs time; format: cell-based; conditions: 10 μM
# Description: as §4
# erythrocytes = experiment: Valinomycin induced cell volume loss, relative volume of packed cells; format: cell-based; conditions: valinomycin for 5 min; volume loss 26% without compound
# Description: Inducing a massive water and salt loss (KCl) by addition the K^+-ionophore valinomycin to the suspension for 5 min reduced the cell volume by 26%.
# [2] = test system: erythrocyte chloride channels (homozygoteous sickle cell erythrocytes); experiment: Cl- conductance (GCl) in sickle cell erythrocytes; format: cell-based, Human; conditions: oxygenated as well as deoxygenated homozygoteous sickle cell erythrocytes
# Description: as §1, §2, §3
# proton pump = conditions: cited from earlier work
# bone resorbtion = conditions: in vitro; cited from earlier work
# bone degration = conditions: growing yound rats; cited from earlier work
smiles,measurement,setting,value
O=C(Nc1cccc(C(F)(F)F)c1)Nc1ccccc1C(=O)O [N-3-Trifluoromethylphenyl-N′-2-carboxyphenyl Urea],block of GCl,[1],more than 95%
same,Kd,[1],1300 nM
same,basal K+-flux from sickle erythrocytes,sickle erythrocytes,normalised
same,deoxygenation induced K+ flux component,sickle erythrocytes; deoxygenated sickle erythrocytes,nearly abolished
same,non-toxic dose,mice,up to 250 mg/kg
same,non-toxic dose,rats,up to 250 mg/kg
same,effect on K+-fluxes of normal erythrocytes,Normal erythrocytes,insensitive
same,cell volume loss in presence of compound,erythrocytes,7%
same,block of GCl compared with normal erythrocytes,[2],equipotently blocked
"CN(C)S(=O)(=O)c1ccc(-c2ccc(NC(=O)Nc3cccc(C(F)(F)F)c3)c(-c3nnn[nH]3)c2)cc1 [N-(3-Trifluoromethylphenyl)-N′-(4′-(N,N-dimethylsulfamoyl)-2-(1-H-tetrazol-5-yl)-4-biphenyl) urea]",Kd,[1],300 nM
same,melting point,,258 to 260 °C
COc1ccc2[nH]c([S+]([O-])Cc3ncc(C)c(OC)c3C)nc2c1 (centres unmarked) [omeprazol],block of the proton pump,proton pump,ineffective
O=C(Nc1cccc(C(F)(F)F)c1)Nc1ccc(Br)cc1-c1nnn[nH]1 [3-Trifluoromethylphenyl-4-bromo-2-(5-tetrazolyl)phenyl Urea],Kd,[1],1900 nM
CC(=O)Nc1nnc(S(N)(=O)=O)s1 [acetacolamide],"effect on bone resorbtion, pit formation",bone resorbtion,effective
CO/C1=C\C(C)=C\[C@@H](C)[C@@H](O)[C@@H](C)C/C(C)=C/C=C/[C@H](OC)[C@@H]([C@@H](C)[C@@H](O)[C@H](C)[C@@]2(O)C[C@@H](O)[C@H](C)[C@@H](C(C)C)O2)OC1=O [bafilomycin A1],"effect on bone resorbtion, pit formation",bone resorbtion,completely eliminates
same,effect on bone degration,bone degration,depresses
same,block of the proton pump,proton pump,"extremely potent, reversible inhibitor"
